From US20180318199A1, “Pharmaceutical Composition Having Anti-Aging Properties against High-Glucose” (TAIWAN LEADER BIOTECH CORP., priority 2017, published 2018)

How the values were obtained:
Assay type in all cases: cell-based, human
[1] = tested on: HNDFs; test: Intracellular ROS by flow cytometry (DCFH-DA) in HNDFs; conditions: 24 h; for intracellular ROS generation: ANM 10 μM or NAC 100 μM + HG 30 mM, HG alone 426.2%; for ROS generation, compound alone: ANM 10 μM or NAC 100 μM without HG
Experimental: Next, please refer to FIG. 4A˜FIG. 4H, which are views showing HG-induced senescence inhibited by ANM in HNDFs. As shown in the figures, it is examined whether ANM inhibits HG-induced ROS generation. In FIG. 4A, HNDFs are incubated with ANM (10 μM) or NAC (100 μM) either in the presence or absence of HG (30 mM) for 24 h. The intracellular ROS level is determined by flow cytometry using DCH-DA flurogenic probe. […] As is shown, HNDFs are co-incubated with HG and ANM or NAC for 24 h, and intracellular ROS levels are measured by flow cytometry.
Moreover, in FIG. 6B, HNDFs are transfected with specific siRNA against Nrf2 or control siRNA. […] Intracellular ROS is measured by DCFH-DA assay.
Intracellular ROS accumulation is determined using the dye DCFH2-DA following a procedure described earlier. Briefly, HNDFs (1×10^5 cells/well) are seeded in 6-well plates and incubated with HG in the presence or absence of test samples for 24 h. At the end of the incubation, the culture supernatant is removed and cells are washed twice with PBS. DCFH2-DA […] is mixed with 500 μL MEM and added to the culture plate. After incubation for 30 minutes, cells are collected by trypsin and the fluorescence shift is quantified using a flow cytometer (Beckman Coulter). Data are acquired and analyzed using CXP software (Beckman Coulter).

[2] = tested on: HO-1 and NQO-1; test: Western blot of HO-1 and NQO-1 in HNDFs; conditions: ANM 10 μM or NAC 100 μM, 24 h; for HO-1 protein expression: NG and HG groups
Experimental: In FIG. 5D, to determine the protein expression levels of HO-1, NQO-1 and Nrf2, HNDFs are incubated with ANM (10 μM) or NAC (100 μM) for 24 h. Total cell lysates are prepared and subjected to western blot analysis to monitor the expression levels of HO-1, NQO-1 and Nrf2.
(§1) Cells are lysed by either RIPA lysis buffer or nuclear and cytoplasmic extraction reagents (Thermo Fisher Scientific). Protein concentrations are determined by Bio-Rad protein assay reagent (Bio-Rad Laboratories, Hercules, Calif.). Equal amounts of protein samples (60 μg) are separated by 7-12% SDS-PAGE and the separated proteins are transferred onto polyvinylidene […] (PVDC) membrane overnight. The transferred protein membranes are blocked with 5% non-fat dried milk for 30 min, followed by incubation with specific primary antibodies overnight, and either horseradish peroxidase-conjugated goat anti-rabbit or anti-mouse antibodies for 2 h. The blots are detected using VL Chemi-Smart 3000 (Viogene Biotek, Sunnyvale, Calif.) with the enhanced chemiluminescence (ECL) western blotting reagent (Millipore, Billerica, Mass.).

[3] = tested on: p53 and FoxO1; test: Western blot of p53 and FoxO1 acetylation/phosphorylation in HNDFs; conditions: for HG-induced p53 phosphorylation at Ser15: ANM 10 μM or NAC 100 μM + HG 30 mM; for total p53 and FoxO1 levels: HNDFs, with or without HG; for protection against HG-induced decrease in FoxO1 phosphorylation: co-treatment with HG 30 mM
Experimental: It is well known that p16^INK4A and p21^CIP1 are regulated by transcription factors p53 and FoxO1 followed by acetylation. […] In addition, p53 phosphorylation at Ser15 by their upstream kinases promotes transcriptional activation in response to DNA damage.
To further examine the phenomenon that HG-induced p53 activation is relayed by the p38 MAPK or JNK/SAPK cascade, cells are incubated with corresponding pharmacological inhibitors, SB203580, SP600125, PD98059 and LY294002 for p38MAPK, JNK/SAPK, ERK1/2 and P13K/AKT, respectively in the presence of HG.
The protein expression levels of SIRT-1, SIRT-6, p21^CIP1, SMP30, p53, FoxO and acetylation of p53 and FoxO1 are determined by western blot analysis.
as §1

[4] = tested on: HNDFs; test: Cell-cycle distribution by flow cytometry (PI) in HNDFs; conditions: ANM 10 μM or NAC 100 μM + HG 30 mM, 72 h; HG 71.2%, NG 46.5%
Experimental: Senescence is well-defined as an irreversible arrest in the G0/G1 phase of the cell-cycle, triggered by various physiological and chemical stimuli including HG. It is thus paradoxical that HG-induced senescence is associated with cell-cycle arrest. Please refer to FIG. 3A˜FIG. 3C, which are views showing HG-induced growth arrest blocked by ANM in HNDFs. As shown in the figures, to further explore this paradoxical relationship, HNDFs are treated with HG and ANM or N-acetylcysteine (NAC). In FIG. 3A, HNDFs are incubated with ANM (10 μM) or NAC (100 μM) in the presence of HG (30 mM) for 72 h. Cell-cycle distribution is measured by flow cytometer using PI. Percentage of cell population in each transition phase is shown in a histogram view.
HNDFs at a density of 5×10^5 cells in 10 cm dishes are treated with ANM or NAC in the presence or absence of HG for 72 h. Cells are collected, washed with PBS and fixed in 95% cold-ethanol, and kept at −20° C. overnight. The cell pellet is then washed again with PBS and centrifuged at 1500×g for 5 min. The pellet is re-suspended in 1 mL PI/Triton X-100 (20 μg/mL PI, 0.1% Triton X-100 and 0.2 mg/mL RNAse) and incubated on ice for 30 min. The total cellular DNA content is analyzed with a flow cytometer (Beckman Coulter FC500). Data are acquired and analyzed using CXP software (Beckman Coulter).

Structure (SMILES) | HG-induced ROS generation, scrambled siRNA cells ([1]; ANM 10 μM + HG) | ROS generation, siNrf2 transfected cells ([1]; ANM 10 μM + HG) | intracellular ROS generation [1] | ROS generation, compound alone [1] | NQO-1 protein expression [2] | HO-1 protein expression [2] | HG-induced p53 and FoxO1 acetylation ([3]; ANM 10 μM + HG 30 mM, 72 h) | HG-induced p21^CIP1 expression and acetylation in p53 and FoxO1, control siRNA cells ([3]; ANM 10 μM + HG, 72 h) | p21^CIP1 expression, p53/FoxO1 deacetylation, SMP30 upregulation in SIRT-1 silenced cells ([3]; ANM 10 μM + HG, 72 h, siSIRT-1) | HG-induced p53 phosphorylation at Ser15 [3] | total p53 and FoxO1 levels [3] | protection against HG-induced decrease in FoxO1 phosphorylation [3] | cell population in the G0/G1 phase [4]
C=C(CCC(C)C1CCC2C3=C(C(=O)C(O)C21C)C1(C)CCC(O)C(C)C1CC3)C(C)C(=O)O (stereo not drawn) [ANM, antcin M] | significantly inhibits | increased ROS generation | 200.8% | does not significantly increase | unaffected | significantly increase | barely observed | significantly attenuated | fails to inhibit | significantly blocked | neither ANM nor NAC affected | fails to protect | 49.5%
CC(=O)N[C@@H](CS)C(=O)O [NAC, N-acetylcysteine, reference compound] | – | – | 176.58% | does not significantly increase | unaffected | significantly increase | – | – | – | significantly blocked | neither ANM nor NAC affected | fails to protect | partially blocks
